Measurements as given in the Kinase Knowledgebase extract (Sharma et al. 2016).

How the values were obtained:
EGFR = EGFR (UniProt P00533)
CDK2 = CDK2 (UniProt P24941); experiment: Enzyme Assay

EGFR, sequence (P00533 whole entry, looked up): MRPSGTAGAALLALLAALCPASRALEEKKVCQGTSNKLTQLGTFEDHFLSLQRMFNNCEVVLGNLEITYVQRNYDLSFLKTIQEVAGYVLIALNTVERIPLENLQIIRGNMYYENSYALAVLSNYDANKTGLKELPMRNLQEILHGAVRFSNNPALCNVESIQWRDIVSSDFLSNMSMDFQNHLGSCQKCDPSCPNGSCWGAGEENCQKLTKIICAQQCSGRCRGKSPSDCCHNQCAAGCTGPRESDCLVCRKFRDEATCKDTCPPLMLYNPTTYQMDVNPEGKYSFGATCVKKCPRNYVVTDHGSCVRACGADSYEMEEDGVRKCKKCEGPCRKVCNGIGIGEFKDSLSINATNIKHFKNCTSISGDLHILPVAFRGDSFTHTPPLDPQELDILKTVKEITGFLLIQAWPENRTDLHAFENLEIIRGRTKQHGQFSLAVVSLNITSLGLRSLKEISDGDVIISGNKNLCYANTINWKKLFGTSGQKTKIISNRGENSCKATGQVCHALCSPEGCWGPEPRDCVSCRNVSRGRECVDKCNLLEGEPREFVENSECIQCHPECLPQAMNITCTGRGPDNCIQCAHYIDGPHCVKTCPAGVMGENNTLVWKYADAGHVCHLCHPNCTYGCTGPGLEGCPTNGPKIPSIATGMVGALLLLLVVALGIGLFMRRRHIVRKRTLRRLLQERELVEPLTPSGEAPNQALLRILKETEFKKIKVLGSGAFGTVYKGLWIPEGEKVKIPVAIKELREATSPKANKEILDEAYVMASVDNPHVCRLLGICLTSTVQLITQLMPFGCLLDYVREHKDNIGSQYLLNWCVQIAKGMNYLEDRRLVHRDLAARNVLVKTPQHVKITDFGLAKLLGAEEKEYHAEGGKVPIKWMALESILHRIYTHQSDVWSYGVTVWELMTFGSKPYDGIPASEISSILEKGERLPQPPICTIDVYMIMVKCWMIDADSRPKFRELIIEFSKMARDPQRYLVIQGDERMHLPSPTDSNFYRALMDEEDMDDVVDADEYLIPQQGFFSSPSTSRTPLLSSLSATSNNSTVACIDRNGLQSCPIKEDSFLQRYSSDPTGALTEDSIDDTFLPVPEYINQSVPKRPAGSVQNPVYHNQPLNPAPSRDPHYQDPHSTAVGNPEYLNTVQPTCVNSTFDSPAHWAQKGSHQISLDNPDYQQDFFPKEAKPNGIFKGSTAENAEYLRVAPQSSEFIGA

COc1ccc([C@H](O)CNc2cc[nH]c(=O)c2-c2nc3cc4cn[nH]c4cc3[nH]2)cc1Br
IC50 (EGFR): < 25 µM | IC50 (CDK2): < 25 µM

Cc1nc(N2CCN(CC3CC3)CC2)nc2[nH]c(-c3c(NC[C@@H](O)c4cccc(Cl)c4)cc[nH]c3=O)nc12
IC50 (EGFR): < 25 µM | IC50 (CDK2): < 25 µM

Cc1nc(N2CCN(Cc3ccccn3)CC2)nc2[nH]c(-c3c(NC[C@@H](O)c4cccc(Cl)c4)cc[nH]c3=O)nc12
IC50 (EGFR): < 25 µM | IC50 (CDK2): < 25 µM

O=c1[nH]ccc(NC[C@@H](O)c2cccc(Br)c2)c1-c1nc2cc3cn[nH]c3cc2[nH]1
IC50 (EGFR): < 25 µM | IC50 (CDK2): < 25 µM

Cc1nc(N2CCN(COCc3ccccc3)CC2)nc2[nH]c(-c3c(NC[C@@H](O)c4cccc(Cl)c4)cc[nH]c3=O)nc12
IC50 (EGFR): < 25 µM | IC50 (CDK2): < 25 µM

Cc1nc(N2CCN(Cc3cccc(F)c3)CC2)nc2[nH]c(-c3c(NC[C@@H](O)c4cccc(Cl)c4)cc[nH]c3=O)nc12
IC50 (EGFR): < 25 µM | IC50 (CDK2): < 25 µM

CCOC(=O)C1CC1CN1CCN(c2nc(C)c3nc(-c4c(NC[C@@H](O)c5cccc(Cl)c5)cc[nH]c4=O)[nH]c3n2)CC1 (some centres not stated)
IC50 (EGFR): < 25 µM | IC50 (CDK2): < 25 µM

Cc1nc(N2CCN(C(=O)OC(C)(C)C)CC2)nc2[nH]c(-c3c(NC[C@@H](O)c4cccc(Cl)c4)cc[nH]c3=O)nc12
IC50 (EGFR): < 25 µM | IC50 (CDK2): < 25 µM

O=c1[nH]ccc(NCC(O)c2cccc(Cl)c2)c1-c1nc2cnccc2[nH]1 (configuration not stated)
IC50 (EGFR): < 25 µM | IC50 (CDK2): < 25 µM

Cc1nc(N2CCNCC2)nc2[nH]c(-c3c(NC[C@@H](O)c4cccc(Cl)c4)cc[nH]c3=O)nc12
IC50 (EGFR): < 25 µM | IC50 (CDK2): < 25 µM

O=c1[nH]ccc(NC[C@@H](O)c2cccc(Cl)c2)c1-c1nc2cc3cn[nH]c3cc2[nH]1
IC50 (EGFR): < 25 µM | IC50 (CDK2): < 25 µM

CCC(C)CN1CCN(c2nc(C)c3nc(-c4c(NC[C@@H](O)c5cccc(Cl)c5)cc[nH]c4=O)[nH]c3n2)CC1 (some centres not stated)
IC50 (EGFR): < 25 µM | IC50 (CDK2): < 25 µM

CCN1CCN(c2nc(C)c3nc(-c4c(NC[C@@H](O)c5cccc(Cl)c5)cc[nH]c4=O)[nH]c3n2)CC1
IC50 (EGFR): < 25 µM | IC50 (CDK2): < 25 µM

Cc1nc(N2CCN(Cc3nccs3)CC2)nc2[nH]c(-c3c(NC[C@@H](O)c4cccc(Cl)c4)cc[nH]c3=O)nc12
IC50 (EGFR): < 25 µM | IC50 (CDK2): < 25 µM

Cc1nc(N2CCN(Cc3nccn3C)CC2)nc2[nH]c(-c3c(NC[C@@H](O)c4cccc(Cl)c4)cc[nH]c3=O)nc12
IC50 (EGFR): < 25 µM | IC50 (CDK2): < 25 µM

O=c1[nH]c2cc3nc(-c4c(NC[C@@H](O)c5cccc(Cl)c5)cc[nH]c4=O)[nH]c3cc2[nH]1
IC50 (EGFR): < 25 µM | IC50 (CDK2): < 25 µM

Cc1nc(N2CCN(Cc3cccn3C)CC2)nc2[nH]c(-c3c(NC[C@@H](O)c4cccc(Cl)c4)cc[nH]c3=O)nc12
IC50 (EGFR): < 25 µM | IC50 (CDK2): < 25 µM

O=c1[nH]ccc(NCC(O)c2cccc(Br)c2)c1-c1nc2cnccc2[nH]1 (configuration not stated)
IC50 (EGFR): < 25 µM | IC50 (CDK2): < 25 µM

Cc1nc(N2CCN(Cc3ncc[nH]3)CC2)nc2[nH]c(-c3c(NC[C@@H](O)c4cccc(Cl)c4)cc[nH]c3=O)nc12
IC50 (EGFR): < 25 µM | IC50 (CDK2): < 25 µM

Cc1nc(N2CCOCC2)nc2[nH]c(-c3c(NC[C@@H](O)c4cccc(Cl)c4)cc[nH]c3=O)nc12
IC50 (EGFR): < 25 µM | IC50 (CDK2): < 25 µM

COc1ccc(C(O)CNc2cc[nH]c(=O)c2-c2nc3cnccc3[nH]2)cc1Br (configuration not stated)
IC50 (EGFR): < 25 µM | IC50 (CDK2): < 25 µM
